Source: patent publication US7259004B1, “Endophytic streptomycetes from higher plants with biological activity” (Montana State University, priority 2002, dated 2007)

What was measured:
[1] = system: Enterococcus faecalis ATCC 51299; assay: disk diffusion assay; format: cell-based; conditions: 10 micrograms per disk; ciprofloxacin 5, vancomycin 30 micrograms per disk; 35° C.
[2] = system: Human Breast Cancer Epithelial BT-20; assay: CellTiter 96 Aqueous Non-Radioactive Cell Proliferation Assay; format: cell-based; conditions: 96-144 hours; Table 7
Method: (§1) The munumbicins were then tested against three human cancer cell lines (ATCC) and human primary mammary epithelial cells (HMECs) (Clonetics; Biowhittaker, Walkersville, Md.) using a CellTiter 96® Aqueous Non-Radioactive Cell Proliferation Assay kit from Promega (Madison, Wis.). The cell lines were A-549 (lung epithelial carcinoma, ATCC CCL-185), ME-180 (cervical epithelial epidermoid carcinoma, ATCC HTB-33), and BT-20 (breast epithelial cancer, ATCC HTB-19), and were grown in the media recommended by ATCC. The primary mammary cells were cultured as recommended by the manufacturer in mammary epithelial cell growth media (MEGM®). […] After seeding, the cells were incubated for five hours at 37° C. before addition of the munumbicins. Two-fold serial dilutions of the munumbicins were made in the culture medium, and a volume equal to that of the seeded cells for each dilution was added to three wells of cells. Each plate also contained some wells with cells plus medium only and some wells with medium only. […] The A-549 and ME-180 cells were incubated for 48 hours. […] The plates were incubated at 37° C. for one to four hours, and the OD490 was determined. The OD reading of all wells was corrected for background by subtracting the reading of wells containing medium only. […] Kakadumycin A was tested against three human cancer cell lines (ATCC) and human primary mammary epithelial cells using the procedure described above for the munumbicins. Kadadumycin B was tested against one human cancer cell line.

[3] = system: Human Cervical Cancer Epithelial ME180; assay: as above; format: cell-based; conditions: 48 hours; Table 7
Method: as §1

[4] = system: Human Lung Cancer Epithelial A549; assay: as above; format: cell-based; conditions: 48 hours; Table 7
Method: as §1

[5] = system: Human Primary Mammary Epithelial HMEC; assay: as above; format: cell-based; conditions: 48 hours; Table 7
Method: as §1

[6] = system: Staphylococcus aureus ATCC 33591 (MRSA); assay: microbroth dilution MIC; format: cell-based; conditions: methicillin resistant strain; first listing in Table 4
[7] = system: Candida tropicalis ATCC 750; assay: disk diffusion assay; format: cell-based; conditions: 10 micrograms per disk; 35° C. Further: key: R = resistant.
Bacillus anthracis K8902 = format: cell-based; conditions: 10 micrograms per disk; ciprofloxacin 5, vancomycin 30 micrograms per disk; 35° C.
[8] = system: Candida glabrata ATCC 2001; assay: disk diffusion assay; format: cell-based; conditions: 10 micrograms per disk; 35° C. Further: key: R = resistant.
S. epidermis ATCC 12228 = assay: disk diffusion assay; format: cell-based, Staphylococcus epidermidis; conditions: 10 micrograms per disk; 35° C.
[9] = system: Streptococcus pneumoniae ATCC 49619; assay: disk diffusion assay; format: cell-based; conditions: 10 micrograms per disk; ciprofloxacin 5, vancomycin 30 micrograms per disk; MHA with 5% dsb. and 5% CO2
brine shrimp = brine shrimp assays; conditions: preliminary assays
[10] = system: Neisseria gonnorhea ATCC 49226; assay: disk diffusion assay; format: cell-based; conditions: 10 micrograms per disk; ciprofloxacin 5, vancomycin 30 micrograms per disk; GC agar with 1% growth supplement with 5% CO2
[11] = system: Plasmodium falciparum strain CSC-1 (Honduras); assay: antimalarial assay, 3H-phenylalanine radiobioassay in human red blood cells; conditions: human red blood cells, 3H-phenylalanine; standard deviation of the mean, three experiments
[12] = system: Staphylococcus aureus ATCC 29213; assay: disk diffusion assay; format: cell-based; conditions: 10 micrograms per disk; ciprofloxacin 5, vancomycin 30 micrograms per disk; 35° C.
[13] = system: Acinetobacter sp. ATCC 49137; assay: disk diffusion assay; format: cell-based; conditions: 10 micrograms per disk; ciprofloxacin 5, vancomycin 30 micrograms per disk; grown at 30° C.
Aspergillus fumigatus = assay: microbroth dilution MIC
[14] = system: Shigella dysenteriae ATCC 11835; assay: disk diffusion assay; format: cell-based; conditions: 10 micrograms per disk; 35° C.
[15] = system: Candida parasilosis ATCC 22019; assay: disk diffusion assay; format: cell-based, Candida parapsilosis; conditions: 10 micrograms per disk; 35° C. Further: key: R = resistant.
[16] = system: Escherichia coli ATCC 25922; assay: disk diffusion assay; format: cell-based; conditions: 10 micrograms per disk; penicillin G 10 units per disk; 35° C. Further: key: R = resistant.
[17] = system: Candida albicans ATCC 90028; assay: disk diffusion assay; format: cell-based; conditions: 10 micrograms per disk; 35° C. Further: key: R = resistant.
Candida krusei ATCC 6258 = assay: disk diffusion assay; format: cell-based; conditions: 10 micrograms per disk; 35° C.
[18] = system: Pseudomonas aeruginosa ATCC 27853; assay: disk diffusion assay; format: cell-based; conditions: 10 micrograms per disk; ciprofloxacin 5, vancomycin 30 micrograms per disk; 35° C. Further: key: R = resistant.
Pseudomonas syringae = assay: microbroth dilution MIC, plant associated microorganisms; format: cell-based; conditions: PD broth
Method: (§2) Incubation was for 48 hours at 23° C. A plant pathogenic strain of Pseudomonas syringae was also tested using the same PD broth medium and with concentrations of colony forming units as given above. The organisms were obtained from the Montana State University plant pathogen culture collection administered by Dr. […] The relative activities against plant pathogenic fungi ranged from a few tenths of a microgram up to thirty micrograms. Table 2 provides the results of tests of inhibitory activity of the munumbicins against various plant-pathogenic fungi and one pathogenic bacterium. The data are reported as MIC values in micrograms/ml.

Pythium ultimum = assay: as above; format: cell-based; conditions: PD broth, 48 hours at 23° C.
Method: as §2

Sclerotinia sclerotiorum = assay: as above; format: cell-based; conditions: PD broth, 48 hours at 23° C.
Method: as §2

Cryptococcus neoformans = assay: microbroth dilution MIC
[19] = system: Candida albicans ATCC 24433; assay: disk diffusion assay; format: cell-based; conditions: 10 micrograms per disk; 35° C. Further: key: R = resistant.
[20] = system: gram positive bacteria including Staphylococcus species, Streptococcus pneumoniae, Enterococcus species, Bacillus subtilis, and Listeria monocytogenes; assay: activity against Gram positive bacteria (general statements); format: cell-based
[21] = system: Candida parasdosis ATCC 90018; assay: disk diffusion assay; format: cell-based, Candida parapsilosis; conditions: 10 micrograms per disk; 35° C. Further: key: R = resistant.
[22] = system: Enterococcus faecalis ATCC 51299 (VRE); assay: microbroth dilution MIC; format: cell-based; conditions: resistant to vancomycin; first listing in Table 4
Vibrio fischeri PIC 345 = assay: disk diffusion assay; format: cell-based; conditions: 10 micrograms per disk; ciprofloxacin 5, vancomycin 30 micrograms per disk; 35° C.
[23] = system: Enterococcus faecalis ATCC 29212; assay: disk diffusion assay; format: cell-based; conditions: 10 micrograms per disk; ciprofloxacin 5, vancomycin 30 micrograms per disk; 35° C.
[24] = system: S. maltophilia ATCC 13637; assay: disk diffusion assay; format: cell-based, Stenotrophomas maltophilia; conditions: 10 micrograms per disk; 35° C.

Q: Which results are given for munumbicin A?
A: diameter of the zone of inhibition, Enterococcus faecalis ATCC 51299 [1]: R; IC50 Human Breast Cancer Epithelial BT-20 [2]: 0.19 micrograms/ml; IC50 Human Cervical Cancer Epithelial ME180 [3]: 0.51 micrograms/ml; IC50 Human Lung Cancer Epithelial A549 [4]: 1 micrograms/ml; IC50 Human Primary Mammary Epithelial HMEC [5]: 0.331 micrograms/ml; MIC Staphylococcus aureus ATCC 33591 [6]: not active; diameter of the zone of inhibition, Candida tropicalis ATCC 750 [7]: R; diameter of the zone of inhibition, Bacillus anthracis K8902 (Bacillus anthracis K8902): 9.5 mm; diameter of the zone of inhibition, Candida glabrata ATCC 2001 [8]: R; diameter of the zone of inhibition, S. epidermis ATCC 12228 (S. epidermis ATCC 12228): 9 mm; diameter of the zone of inhibition, Streptococcus pneumoniae ATCC 49619 [9]: R; LC50 brine shrimp (brine shrimp): 3.3 micrograms/ml; diameter of the zone of inhibition, Neisseria gonnorhea ATCC 49226 [10]: 9 mm; IC50 Plasmodium falciparum [11]: 0.175 ± 0.106 µg/mL; diameter of the zone of inhibition, Staphylococcus aureus ATCC 29213 [12]: R; diameter of the zone of inhibition, Acinetobacter sp. ATCC 49137 [13]: R; MIC Aspergillus fumigatus (Aspergillus fumigatus): 20 micrograms/ml; diameter of the zone of inhibition, Shigella dysenteriae ATCC 11835 [14]: R; diameter of the zone of inhibition, Candida parasilosis ATCC 22019 [15]: R; diameter of the zone of inhibition, Escherichia coli ATCC 25922 [16]: R; diameter of the zone of inhibition, Candida albicans ATCC 90028 [17]: R; diameter of the zone of inhibition, Candida krusei ATCC 6258 (Candida krusei ATCC 6258): R; diameter of the zone of inhibition, Pseudomonas aeruginosa ATCC 27853 [18]: R; MIC Pseudomonas syringae (Pseudomonas syringae): 15.6 micrograms/ml; MIC Pythium ultimum (Pythium ultimum): 2.0 micrograms/ml; MIC Sclerotinia sclerotiorum (Sclerotinia sclerotiorum): 8.0 micrograms/ml; MIC Cryptococcus neoformans (Cryptococcus neoformans): 10 micrograms/ml; diameter of the zone of inhibition, Candida albicans ATCC 24433 [19]: R; activity against Gram positive bacteria incl. drug resistant strains (in words) [20]: shows activity; diameter of the zone of inhibition, Candida parasdosis ATCC 90018 [21]: R; MIC Enterococcus faecalis ATCC 51299 [22]: 8 micrograms/ml; diameter of the zone of inhibition, Vibrio fischeri PIC 345 (Vibrio fischeri PIC 345): R; diameter of the zone of inhibition, Enterococcus faecalis ATCC 29212 [23]: R; diameter of the zone of inhibition, S. maltophilia ATCC 13637 [24]: R
